In patent US20260184708A1, “PYRIDAZINONES AND METHODS OF USE THEREOF” (GFB (ABC), LLC, priority 2017, published 2026):
Like-named read-outs stand apart in the source and are kept apart here.

Molecular target: T1, TRPC5 (Homo sapiens, UniProt Q9UL62)
T1 construct: expressed in transfected cells; host or cells: HEK 293
T1 sequence (Q9UL62 1-973): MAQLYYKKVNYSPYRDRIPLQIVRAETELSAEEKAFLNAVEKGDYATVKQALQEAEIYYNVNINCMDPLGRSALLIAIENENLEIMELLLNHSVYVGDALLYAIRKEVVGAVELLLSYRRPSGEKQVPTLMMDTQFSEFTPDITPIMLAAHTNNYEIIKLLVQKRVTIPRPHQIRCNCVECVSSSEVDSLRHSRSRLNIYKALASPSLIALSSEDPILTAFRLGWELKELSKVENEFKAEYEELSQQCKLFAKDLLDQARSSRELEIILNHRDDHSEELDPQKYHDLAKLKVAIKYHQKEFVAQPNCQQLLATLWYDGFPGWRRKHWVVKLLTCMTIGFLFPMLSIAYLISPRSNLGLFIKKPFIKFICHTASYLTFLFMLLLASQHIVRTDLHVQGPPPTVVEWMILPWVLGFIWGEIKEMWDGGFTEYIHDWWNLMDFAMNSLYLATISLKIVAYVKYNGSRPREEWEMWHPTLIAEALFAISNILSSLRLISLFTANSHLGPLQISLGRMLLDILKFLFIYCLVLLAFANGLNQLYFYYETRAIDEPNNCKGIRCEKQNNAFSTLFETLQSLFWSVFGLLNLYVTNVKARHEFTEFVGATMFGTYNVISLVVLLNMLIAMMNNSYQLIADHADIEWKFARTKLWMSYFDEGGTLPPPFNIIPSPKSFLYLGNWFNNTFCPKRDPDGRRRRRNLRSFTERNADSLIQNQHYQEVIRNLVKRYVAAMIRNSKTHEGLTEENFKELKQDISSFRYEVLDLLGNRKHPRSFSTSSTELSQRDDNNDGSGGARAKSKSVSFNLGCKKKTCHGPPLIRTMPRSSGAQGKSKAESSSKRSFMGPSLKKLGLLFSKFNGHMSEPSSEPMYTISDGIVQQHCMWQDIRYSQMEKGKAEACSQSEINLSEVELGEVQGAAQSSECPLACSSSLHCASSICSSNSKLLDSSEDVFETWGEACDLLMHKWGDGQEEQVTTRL
Assay: TRPC5 Fluorescence Assay - FLIPR format (HEK-TREx hTRPC5, Riluzole stimulation)
Format: cell-based
Experimental: • Cell line: ICLN-001633 • Base Cell: HEK • Channel: TRPC5 • Species: Human • Thaw ID: multiple • Passage: multiple
FLIPR Assay Buffer (Earls Balanced Salt Solution (EBSS) was prepared as follows:
Test Agent Preparation: Compounds were made up to, or supplied as, a 10 mM stock solution generally using DMSO as the vehicle. 10-point dose response curves were generated using the Echo-550 acoustic dispenser. Compound source plates were made by serially diluting compound stocks to create 10 mM, 1 mM, and 0.1 mM solutions in DMSO into Echo certified LDV plates. The Echo then serially spotted 100% DMSO stock solutions into source dose response plates to generate a 4-fold dilution scheme. 100% DMSO was added to the spotted dose response plates to bring the final volume to 5 μl. […] of the dose response stock plate was then spotted into pre-incubation and stimulation assay plates. 50 μl of pre-incubation buffer and 100 μl of stimulation buffer was then added to the plates resulting in a final assay test concentration range of 30 μM to 0.0001 μM with a final DMSO concentration of 0.3%.
Experimental Methods: Cells expressing TRPC5 (HEK-TREx hTRPC5) are plated onto 384 well, black PDL-coated microplates and maintained in TRPC5 growth media the day prior to use for experiments. TRPC5 expression is induced by the application of […] tetracycline at the time of plating. Media is removed from the plates and 10 μl of 4 μM of Fluo-4 AM (mixed with equal volume of Pluronic F-127) in EBSS is added to the cells. Cells are incubated at room temperature, protected from light, for 60-90 minutes. After the incubation period, the dye is removed and replaced with 10 μl of EBSS. Cell, pre-incubation and stimulation plates are loaded onto the FLIPR-II and the assay is initiated. The FLIPR measures a 10 second baseline and then adds 10 μl of 2× compounds (or controls). Changes in fluorescence are monitored for an additional 5 minutes. After the 5 minute pre-incubation, 20 μl of 2× Riluzole (with 1× compound or controls) is added to the cell plate. The final Riluzole stimulation concentration in the assay is 30 μM. After the Riluzole addition, changes in fluorescence are monitored for an additional 5 minutes.
Test Agent Effect: Test agent modulation of TRPC5 calcium response was determined as follows. After the Riluzole, fluorescence was monitored for a 5 minute period. The maximum relative fluorescene response (minus the control response of 1 μM of the control inhibitor) was captured and exported from the FLIPR. Test agent effect was calculated as % inhibition using the following formula: % inhibition=((RFU Test Agent−Plate Average RFU REF INHIB)/(Plate Average RFU Control−Plate Average RFU REF INHIB))×100

[1] = Table 7, read-out: TRPC5-FLIPR IC50
[2] = Table 9, read-out: hTRPCS-FLIPR IC50
[3] = Table 10, read-out: TRPCS-FLIPR IC50

IC50 [2] [nM]	Compound	also measured
1000 to 5000	Cc1ccccc1C(O)C1CCN(c2cn[nH]c(=O)c2Cl)CC1 (centres unmarked)	
1000 to 5000	O=C(CN1CCN(c2cn[nH]c(=O)c2Cl)CC1)c1ccccc1C(F)(F)F	
0.01 to 1000	CCc1ncccc1[C@@H](C)N1CCN(c2cn[nH]c(=O)c2Cl)CC1	
5000 to 10000	CCc1ncccc1NC1CCN(c2cn[nH]c(=O)c2Cl)CC1	
1000 to 5000	O=c1[nH]ncc(N2CCN(S(=O)(=O)Cc3ccccc3C(F)(F)F)CC2)c1Cl	
1000 to 5000	CCc1ncccc1[C@@H](CC)N1CCN(c2cn[nH]c(=O)c2Cl)CC1	
1000 to 5000	CCc1ncccc1[C@H](CC)N1CCN(c2cn[nH]c(=O)c2C#N)CC1	
1000 to 5000	CCc1ncccc1[C@H](C(C)C)N1CCN(c2cn[nH]c(=O)c2Cl)CC1	
0.01 to 1000	CCc1ncccc1[C@@H](C(C)C)N1CCN(c2cn[nH]c(=O)c2Cl)CC1	

The remaining lines, values behind:

Compound	IC50 [2] [nM]	also measured
CN(C)C(=O)c1nn(Cc2ccccc2C(F)F)c2c1CN(c1cn[nH]c(=O)c1Cl)CC2		IC50 [1]: 0.01 to 1000 nM
NC(=O)c1nn(Cc2ccccc2C(F)F)c2c1CN(c1cn[nH]c(=O)c1Cl)CC2		IC50 [1]: 0.01 to 1000 nM
CN(Cc1ccccc1C(F)(F)F)c1ncnc2c1CCN(c1cn[nH]c(=O)c1Cl)C2		IC50 [1]: 5000 to 10000 nM
CCCCn1c(Oc2cccc(F)c2)nc2c1CCN(c1cn[nH]c(=O)c1Cl)C2		IC50 [1]: 1000 to 5000 nM
O=c1[nH]ncc(N2CCc3c(ncnc3Oc3ccccc3C(F)(F)F)C2)c1Cl		IC50 [1]: 0.01 to 1000 nM
CCn1nnc(C)c1CN1CCN(c2cn[nH]c(=O)c2Cl)CC1	1000 to 5000	
Cc1ccccc1CC1(OC(N)=O)CCN(c2cn[nH]c(=O)c2Cl)CC1	1000 to 5000	
C[C@H](O)c1ncccc1CN1CCN(c2cn[nH]c(=O)c2Cl)CC1	0.01 to 1000	
CCc1ncccc1CC1(O)CCN(c2cn[nH]c(=O)c2Cl)CC1	1000 to 5000	
C[C@@H](O)c1ncccc1CN1CCN(c2cn[nH]c(=O)c2Cl)CC1	1000 to 5000	
CCc1ncccc1[C@@H](CC)N1CCN(c2cn[nH]c(=O)c2C#N)CC1	0.01 to 1000	
CC[C@@H](c1cccnc1CC(C)C)C1CCN(c2cn[nH]c(=O)c2Cl)CC1	0.01 to 1000	
C[C@H](c1ccccc1C(F)(F)F)N1CCN(c2cn[nH]c(=O)c2Cl)CC1=O	1000 to 5000	
C[C@@H]1CN([C@@H](C)c2ccc(F)cc2C(F)(F)F)C(=O)CN1c1cn[nH]c(=O)c1Cl	0.01 to 1000	
CC(F)(F)c1ccccc1CC1(O)CCN(c2cn[nH]c(=O)c2Cl)CC1	0.01 to 1000	
NC(=O)C1(Cc2ccccc2C(F)(F)F)CCN(c2cn[nH]c(=O)c2Cl)CC1	1000 to 5000	
C[C@@H]1CCC[C@H]1Cn1nnc2c1CCN(c1cn[nH]c(=O)c1Cl)C2		IC50 [3]: 0.01 to 1000 nM
C[C@H]1CCC[C@H]1Cn1nnc2c1CCN(c1cn[nH]c(=O)c1Cl)C2		IC50 [3]: 0.01 to 1000 nM
O=c1[nH]ncc(N2CCc3c(cnn3Cc3ccc(F)cc3CN3CCOCC3)C2)c1Cl		IC50 [3]: 0.01 to 1000 nM
O=c1[nH]ncc(N2CCc3c(c(-c4ncn[nH]4)nn3Cc3ccccc3C(F)(F)F)C2)c1Cl		IC50 [3]: 1000 to 5000 nM
C[C@H](c1ccc(F)cc1C(F)F)n1nnc2c1CCN(c1cn[nH]c(=O)c1Cl)C2		IC50 [3]: 0.01 to 1000 nM
C[C@H](c1cc(F)ccc1C(F)(F)F)n1nnc2c1CCN(c1cn[nH]c(=O)c1Cl)C2		IC50 [3]: 0.01 to 1000 nM
C[C@@H](c1ccc(Cl)cc1C(F)(F)F)n1nnc2c1CCN(c1cn[nH]c(=O)c1Cl)C2		IC50 [3]: 0.01 to 1000 nM
